{"source": "patent US20130072466A1", "about": "“COMPOSITION CONTAINING PLACENTA EXTRACTS” (Industry-Academic Cooperation Foundation, Yeungnam …, priority 2010, published 2013)", "key": {"reproductive cycle": {"test_system": "reproductive cycle", "assay": "Reproductive cycle change assay by vaginal smearing", "format": "in vivo, CD-1 mice", "settings": "subcutaneous injection for 14 days, FIG. 9", "description": "(§1) The placenta 1 extract prepared according to the example was dissolved with 100% ethanol as a primary solvent, and sesame oil for body injection was added thereto to obtain a 1 g/ml concentration, and the resultant product was diluted into 0.1% concentration. Herein, 100% was defined as a case in which the extract was diluted with sesame oil by a factor of 100. The diluted extract was subcutaneously injected for 14 days to 6-8 week-old CD-1 mice which had been raised under physiological conditions (6 mice per each group).\nTo identify effects of the placenta extract on a reproductive cycle, a reproductive cycle was assayed by vaginal smearing during the administration of the placenta extract."}, "[1]": {"test_system": "CD34 hematopoietic stem cells", "assay": "CD34-marked numerical change assay of hematopoietic stem cells using FACS", "format": "in vivo, CD-1 mouse", "settings": "0.1% placenta extract, subcutaneous, 14 days, FIG. 10", "description": "as §1\nWhether the placenta extract promotes proliferation of hematopoietic stem cells was identified with CD34 that is a marking factor. CD-1 mouse treated with 0.1% placenta extract was sacrificed to collect a thighbone, and then, a bone marrow was extracted therefrom by using PBS solution. Thereafter, the bone marrow was reacted with CD34 specific antibody, and then, CD34 hematopoietic stem cells were counted by using a fluorescent activated cell sorter."}, "red blood cells": {"test_system": "red blood cells", "assay": "Numerical change assay of red blood cells in peripheral blood", "format": "in vivo, CD-1 mice", "settings": "0.1% placenta extract, subcutaneous, 14 days; compared to the control; FIG. 11", "description": "as §1\nThe cells were treated with 0.1% placenta extract under the same conditions as described above, and then, peripheral blood was collected, and then, 1 mg/ml of EDTA was added thereto to prevent blood coagulation. Then, the number of red blood cells was counted by using an analyzer."}}, "data": [{"smiles": "C[C@]12CC[C@H]3[C@@H](CCC4=CC(=O)CC[C@@H]43)[C@@H]1CC[C@@H]2O", "note": "[nandrolone]", "values": [{"measurement": "reproductive cycle periodicity", "setting": "reproductive cycle", "result": "a reproductive cycle gradually became non-periodic"}, {"measurement": "number of CD34 hematopoietic stem cells in bone marrow", "setting": "[1]", "result": "the number of hematopoietic stem cells significantly increased"}, {"measurement": "number of red blood cells in peripheral blood", "setting": "red blood cells", "result": "the number of red blood cells significantly increased"}]}]}
